Assays:
Conditions in all cases: Compound concentration 1.0 uM
[1] = target: Mas-related G-protein coupled receptor member X3 (Homo sapiens) (UniProt Q96LB0); assay: RLU of MRGPRX3 at 1.0 µM in the […] PRESTO-Tango GPCRome screen
[2] = target: Trace amine-associated receptor 2 (Homo sapiens) (UniProt Q9P1P5); assay: RLU of TAAR2 at 1.0 µM in the […] PRESTO-Tango GPCRome screen
[3] = target: Glucose-dependent insulinotropic receptor (Homo sapiens) (UniProt Q8TDV5); assay: RLU of GPR119 at 1.0 µM in the […] PRESTO-Tango GPCRome screen
[4] = target: Somatostatin receptor type 3 (Homo sapiens) (UniProt P32745); assay: RLU of SSTR3 at 1.0 µM in the […] PRESTO-Tango GPCRome screen
[5] = target: Adhesion G-protein coupled receptor F1 (Homo sapiens) (UniProt Q5T601); assay: RLU of GPR110 at 1.0 µM in the […] PRESTO-Tango GPCRome screen
[6] = target: Metabotropic glutamate receptor 6 (Homo sapiens) (UniProt O15303); assay: RLU of GRM6 at 1.0 µM in the Aequorin PRESTO-Tango GPCRome screen
Sequence of Metabotropic glutamate receptor 6 (Homo sapiens) (O15303 whole entry): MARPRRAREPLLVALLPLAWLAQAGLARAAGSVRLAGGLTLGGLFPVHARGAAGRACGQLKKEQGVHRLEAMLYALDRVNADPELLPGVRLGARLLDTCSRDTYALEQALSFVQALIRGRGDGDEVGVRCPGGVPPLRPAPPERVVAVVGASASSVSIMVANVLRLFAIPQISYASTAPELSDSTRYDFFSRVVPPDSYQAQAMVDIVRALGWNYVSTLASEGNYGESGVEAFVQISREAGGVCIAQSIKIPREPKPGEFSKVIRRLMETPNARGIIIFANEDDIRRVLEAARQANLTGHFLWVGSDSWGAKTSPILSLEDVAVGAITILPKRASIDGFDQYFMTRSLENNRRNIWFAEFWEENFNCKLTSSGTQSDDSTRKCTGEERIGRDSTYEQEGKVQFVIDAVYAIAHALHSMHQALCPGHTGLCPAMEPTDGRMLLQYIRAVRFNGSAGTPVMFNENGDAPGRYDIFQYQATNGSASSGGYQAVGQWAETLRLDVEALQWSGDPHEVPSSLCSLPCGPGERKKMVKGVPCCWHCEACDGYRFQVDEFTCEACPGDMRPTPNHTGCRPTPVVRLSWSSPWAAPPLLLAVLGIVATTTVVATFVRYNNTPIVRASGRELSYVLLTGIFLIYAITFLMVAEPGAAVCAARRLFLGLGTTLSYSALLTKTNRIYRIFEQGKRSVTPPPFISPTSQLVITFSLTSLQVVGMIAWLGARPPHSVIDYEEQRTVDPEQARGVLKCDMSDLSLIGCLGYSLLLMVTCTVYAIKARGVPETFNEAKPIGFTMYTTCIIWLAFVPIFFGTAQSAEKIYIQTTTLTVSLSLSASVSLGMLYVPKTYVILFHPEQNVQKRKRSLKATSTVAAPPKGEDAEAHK

[7] = target: 12-(S)-hydroxy-5,8,10,14-eicosatetraenoic acid receptor (Homo sapiens) (UniProt O00270); assay: RLU of GPR31 at 1.0 µM in the […] PRESTO-Tango GPCRome screen
[8] = target: Mu-type opioid receptor (Homo sapiens) (UniProt P35372); assay: RLU of OPRM1 at 1.0 µM in the […] PRESTO-Tango GPCRome screen
Sequence of Mu-type opioid receptor (Homo sapiens) (P35372 whole entry): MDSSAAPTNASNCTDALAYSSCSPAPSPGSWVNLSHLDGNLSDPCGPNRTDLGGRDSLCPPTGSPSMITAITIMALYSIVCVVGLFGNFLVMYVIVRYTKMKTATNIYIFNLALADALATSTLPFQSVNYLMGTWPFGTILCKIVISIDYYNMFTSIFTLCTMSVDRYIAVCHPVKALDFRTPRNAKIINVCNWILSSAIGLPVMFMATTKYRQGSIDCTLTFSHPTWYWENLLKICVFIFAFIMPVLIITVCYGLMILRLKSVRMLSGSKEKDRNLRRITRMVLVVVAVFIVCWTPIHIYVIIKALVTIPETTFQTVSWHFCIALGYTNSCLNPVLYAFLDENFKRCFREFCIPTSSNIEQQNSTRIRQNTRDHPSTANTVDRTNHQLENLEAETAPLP

[9] = target: Adrenocorticotropic hormone receptor (Homo sapiens) (UniProt Q01718); assay: RLU of MC2R at 1.0 µM in the […] PRESTO-Tango GPCRome screen
[10] = target: Neuromedin-K receptor (Homo sapiens) (UniProt P29371); assay: RLU of TACR3 at 1.0 µM in the […] PRESTO-Tango GPCRome screen
[11] = target: Probable G-protein coupled receptor 19 (Homo sapiens) (UniProt Q15760); assay: RLU of GPR19 at 1.0 µM in the […] PRESTO-Tango GPCRome screen
[12] = target: Prokineticin receptor 2 (Homo sapiens) (UniProt Q8NFJ6); assay: RLU of PK2 at 1.0 µM in the […] PRESTO-Tango GPCRome screen
Sequence of Prokineticin receptor 2 (Homo sapiens) (Q8NFJ6 whole entry): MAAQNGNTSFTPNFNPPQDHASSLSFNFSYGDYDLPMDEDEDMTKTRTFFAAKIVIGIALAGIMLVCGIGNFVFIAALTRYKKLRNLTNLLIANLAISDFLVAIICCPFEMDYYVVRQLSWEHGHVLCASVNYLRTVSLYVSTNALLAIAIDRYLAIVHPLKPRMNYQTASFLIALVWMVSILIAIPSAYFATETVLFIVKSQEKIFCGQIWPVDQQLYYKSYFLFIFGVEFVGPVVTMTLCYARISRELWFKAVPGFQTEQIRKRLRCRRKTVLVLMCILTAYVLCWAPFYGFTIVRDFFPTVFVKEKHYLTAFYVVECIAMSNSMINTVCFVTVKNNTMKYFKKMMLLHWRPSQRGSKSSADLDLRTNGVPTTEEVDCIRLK

[13] = target: G-protein coupled receptor 157 (Homo sapiens) (UniProt Q5UAW9); assay: RLU of GPR157 at 1.0 µM in the […] PRESTO-Tango GPCRome screen
Sequence of G-protein coupled receptor 157 (Homo sapiens) (Q5UAW9 whole entry): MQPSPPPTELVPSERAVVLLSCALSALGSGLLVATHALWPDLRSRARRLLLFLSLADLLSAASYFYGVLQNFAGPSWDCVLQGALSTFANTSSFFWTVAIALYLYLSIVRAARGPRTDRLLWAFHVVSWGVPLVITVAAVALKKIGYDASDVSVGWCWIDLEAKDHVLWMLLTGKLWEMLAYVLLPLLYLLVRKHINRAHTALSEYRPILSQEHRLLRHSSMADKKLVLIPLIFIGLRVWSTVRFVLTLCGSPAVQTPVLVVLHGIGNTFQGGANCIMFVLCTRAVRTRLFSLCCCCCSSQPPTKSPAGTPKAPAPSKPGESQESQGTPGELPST

[14] = target: Free fatty acid receptor 3 (Homo sapiens) (UniProt O14843); assay: RLU of FFA3 (GPR41) at 1.0 µM in the […] PRESTO-Tango GPCRome screen
[15] = target: Nociceptin receptor (Homo sapiens) (UniProt P41146); assay: RLU of OPRL1 at 1.0 µM in the […] PRESTO-Tango GPCRome screen
[16] = target: Sphingosine 1-phosphate receptor 2 (Homo sapiens) (UniProt O95136); assay: RLU of S1PR2 at 1.0 µM in the […] PRESTO-Tango GPCRome screen
[17] = target: D(3) dopamine receptor (Homo sapiens) (UniProt P35462); assay: RLU of DRD3 at 1.0 µM in the […] PRESTO-Tango GPCRome screen
[18] = target: Proteinase-activated receptor 2 (Homo sapiens) (UniProt P55085); assay: RLU of F2RL1 at 1.0 µM in the […] PRESTO-Tango GPCRome screen
Opsin-5 (Homo sapiens) = Opsin-5 (Homo sapiens) (UniProt Q6U736); assay: RLU of OPN5 at 1.0 µM in the […] PRESTO-Tango GPCRome screen
Sequence of Opsin-5 (Homo sapiens) (Q6U736 whole entry): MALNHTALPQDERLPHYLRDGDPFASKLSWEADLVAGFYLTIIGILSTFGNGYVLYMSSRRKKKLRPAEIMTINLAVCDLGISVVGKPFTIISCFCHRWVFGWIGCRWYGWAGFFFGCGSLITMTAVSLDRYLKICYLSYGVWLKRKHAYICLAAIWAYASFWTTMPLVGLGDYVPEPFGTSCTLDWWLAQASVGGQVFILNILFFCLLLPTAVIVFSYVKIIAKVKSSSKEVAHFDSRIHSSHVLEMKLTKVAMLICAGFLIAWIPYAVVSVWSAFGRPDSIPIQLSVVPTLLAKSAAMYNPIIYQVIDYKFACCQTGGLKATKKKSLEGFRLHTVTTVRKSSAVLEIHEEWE

[19] = target: Prostaglandin E2 receptor EP1 subtype (Homo sapiens) (UniProt P34995); assay: RLU of PTGER1 at 1.0 µM in the […] PRESTO-Tango GPCRome screen
[20] = target: Cannabinoid receptor 2 (Homo sapiens) (UniProt P34972); assay: RLU of CNR2 at 1.0 µM in the […] PRESTO-Tango GPCRome screen
[21] = target: Gamma-aminobutyric acid type B receptor subunit 1 (Homo sapiens) (UniProt Q9UBS5); assay: RLU of GABBR1 at 1.0 µM in the […] PRESTO-Tango GPCRome screen
[22] = target: Prostaglandin E2 receptor EP2 subtype (Homo sapiens) (UniProt P43116); assay: RLU of PTGER2 at 1.0 µM in the […] PRESTO-Tango GPCRome screen
Sequence of Prostaglandin E2 receptor EP2 subtype (Homo sapiens) (P43116 whole entry): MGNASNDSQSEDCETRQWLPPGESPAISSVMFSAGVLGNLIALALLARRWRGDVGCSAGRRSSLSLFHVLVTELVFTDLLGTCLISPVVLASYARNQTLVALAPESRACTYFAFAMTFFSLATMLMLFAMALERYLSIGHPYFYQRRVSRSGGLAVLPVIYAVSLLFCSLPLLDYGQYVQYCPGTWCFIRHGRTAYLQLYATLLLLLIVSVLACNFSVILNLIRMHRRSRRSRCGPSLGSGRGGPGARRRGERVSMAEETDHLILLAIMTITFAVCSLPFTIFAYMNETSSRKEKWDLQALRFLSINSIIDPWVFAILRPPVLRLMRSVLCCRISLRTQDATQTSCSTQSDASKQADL

[23] = target: Vasopressin V1b receptor (Homo sapiens) (UniProt P47901); assay: RLU of AVPR1B at 1.0 µM in the […] PRESTO-Tango GPCRome screen
[24] = target: Adhesion G protein-coupled receptor A2 (Homo sapiens) (UniProt Q96PE1); assay: RLU of GPR124 at 1.0 µM in the […] PRESTO-Tango GPCRome screen
Sequence of Adhesion G protein-coupled receptor A2 (Homo sapiens) (Q96PE1 whole entry): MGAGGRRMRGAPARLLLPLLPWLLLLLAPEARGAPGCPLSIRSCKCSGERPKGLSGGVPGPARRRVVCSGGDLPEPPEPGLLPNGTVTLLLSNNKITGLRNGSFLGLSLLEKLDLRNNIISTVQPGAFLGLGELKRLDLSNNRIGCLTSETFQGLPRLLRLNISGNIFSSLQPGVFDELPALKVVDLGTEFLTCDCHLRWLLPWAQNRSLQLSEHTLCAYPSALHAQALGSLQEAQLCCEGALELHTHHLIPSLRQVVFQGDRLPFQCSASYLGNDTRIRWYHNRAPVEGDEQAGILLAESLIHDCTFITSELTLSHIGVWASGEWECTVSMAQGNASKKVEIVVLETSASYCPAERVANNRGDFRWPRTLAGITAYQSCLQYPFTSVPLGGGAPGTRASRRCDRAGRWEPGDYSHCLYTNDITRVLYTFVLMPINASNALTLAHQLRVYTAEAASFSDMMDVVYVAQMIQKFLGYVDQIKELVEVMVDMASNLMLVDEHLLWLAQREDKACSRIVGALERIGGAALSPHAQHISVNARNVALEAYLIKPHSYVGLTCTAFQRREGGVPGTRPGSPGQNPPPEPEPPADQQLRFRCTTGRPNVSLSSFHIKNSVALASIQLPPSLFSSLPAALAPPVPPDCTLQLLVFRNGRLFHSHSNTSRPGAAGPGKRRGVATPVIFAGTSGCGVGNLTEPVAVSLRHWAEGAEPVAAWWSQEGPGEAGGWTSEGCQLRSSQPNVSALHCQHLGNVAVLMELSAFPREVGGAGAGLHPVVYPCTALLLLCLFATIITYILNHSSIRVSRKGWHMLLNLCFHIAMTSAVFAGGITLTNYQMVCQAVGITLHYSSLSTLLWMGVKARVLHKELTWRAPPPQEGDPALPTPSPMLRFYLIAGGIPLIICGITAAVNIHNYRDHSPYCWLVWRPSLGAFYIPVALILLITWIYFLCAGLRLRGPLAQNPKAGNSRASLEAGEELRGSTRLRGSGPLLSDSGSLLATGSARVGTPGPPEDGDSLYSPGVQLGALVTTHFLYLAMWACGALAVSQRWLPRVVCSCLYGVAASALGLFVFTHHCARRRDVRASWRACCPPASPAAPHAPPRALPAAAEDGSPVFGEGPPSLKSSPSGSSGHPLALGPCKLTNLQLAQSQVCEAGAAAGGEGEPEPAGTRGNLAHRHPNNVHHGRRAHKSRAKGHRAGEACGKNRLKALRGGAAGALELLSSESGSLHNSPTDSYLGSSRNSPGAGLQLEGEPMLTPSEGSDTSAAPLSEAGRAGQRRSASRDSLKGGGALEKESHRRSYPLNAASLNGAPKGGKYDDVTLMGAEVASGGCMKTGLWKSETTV

[25] = target: Histamine H3 receptor (Homo sapiens) (UniProt Q9Y5N1); assay: RLU of HRH3 at 1.0 µM in the Aequorin PRESTO-Tango GPCRome screen
[26] = target: Chemerin-like receptor 1 (Homo sapiens) (UniProt Q99788); assay: RLU of CMKLR1 at 1.0 µM in the […] PRESTO-Tango GPCRome screen
[27] = target: Gastrin-releasing peptide receptor (Homo sapiens) (UniProt P30550); assay: RLU of GRPR at 1.0 µM in the Aequorin PRESTO-Tango GPCRome screen
[28] = target: C-X-C chemokine receptor type 5 (Homo sapiens) (UniProt P32302); assay: RLU of CXCR5 at 1.0 µM in the […] PRESTO-Tango GPCRome screen
[29] = target: G-protein coupled receptor 35 (Homo sapiens) (UniProt Q9HC97); assay: RLU of GPR35 at 1.0 µM in the […] PRESTO-Tango GPCRome screen
Sequence of G-protein coupled receptor 35 (Homo sapiens) (Q9HC97 whole entry): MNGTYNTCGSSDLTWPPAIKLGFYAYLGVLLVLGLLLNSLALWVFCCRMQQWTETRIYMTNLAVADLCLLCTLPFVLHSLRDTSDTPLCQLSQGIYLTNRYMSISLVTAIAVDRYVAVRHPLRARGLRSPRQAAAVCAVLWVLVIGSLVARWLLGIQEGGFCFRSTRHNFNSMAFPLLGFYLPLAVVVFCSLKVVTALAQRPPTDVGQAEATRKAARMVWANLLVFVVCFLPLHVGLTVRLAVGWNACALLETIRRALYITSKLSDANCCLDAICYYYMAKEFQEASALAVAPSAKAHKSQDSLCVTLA

[30] = target: N-arachidonyl glycine receptor (Homo sapiens) (UniProt Q14330); assay: RLU of GPR18 at 1.0 µM in the […] PRESTO-Tango GPCRome screen
[31] = target: Mas-related G-protein coupled receptor member X1 (Homo sapiens) (UniProt Q96LB2); assay: RLU of MRGPRX1 at 1.0 µM in the […] PRESTO-Tango GPCRome screen
[32] = target: Vasoactive intestinal polypeptide receptor 2 (Homo sapiens) (UniProt P41587); assay: RLU of VIPR2 at 1.0 µM in the […] PRESTO-Tango GPCRome screen
Sequence of Vasoactive intestinal polypeptide receptor 2 (Homo sapiens) (P41587 whole entry): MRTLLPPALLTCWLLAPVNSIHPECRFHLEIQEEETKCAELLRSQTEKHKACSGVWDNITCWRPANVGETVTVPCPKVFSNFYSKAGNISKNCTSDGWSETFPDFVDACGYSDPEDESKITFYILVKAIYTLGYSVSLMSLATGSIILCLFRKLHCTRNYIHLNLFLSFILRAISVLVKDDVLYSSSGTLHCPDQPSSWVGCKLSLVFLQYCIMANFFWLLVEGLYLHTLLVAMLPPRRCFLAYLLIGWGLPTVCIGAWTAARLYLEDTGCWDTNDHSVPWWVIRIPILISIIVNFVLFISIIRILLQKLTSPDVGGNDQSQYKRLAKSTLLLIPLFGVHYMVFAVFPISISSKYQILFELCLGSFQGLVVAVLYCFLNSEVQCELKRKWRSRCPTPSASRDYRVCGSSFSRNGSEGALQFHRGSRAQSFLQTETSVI

[33] = target: Probable G-protein coupled receptor 34 (Homo sapiens) (UniProt Q9UPC5); assay: RLU of GPR34 at 1.0 µM in the […] PRESTO-Tango GPCRome screen
[34] = target: Oxoeicosanoid receptor 1 (Homo sapiens) (UniProt Q8TDS5); assay: RLU of OXER1 at 1.0 µM in the […] PRESTO-Tango GPCRome screen

CCCCC(=O)N1CC2(C1)CN(c1ccccc1-c1nnn[nH]1)C2
RLU [1]: -916 | RLU [2]: 390 | RLU [3]: 272 | RLU [4]: 342 | RLU [5]: 9360 | RLU [6]: -158 | RLU [7]: 1300 | RLU [8]: 3970 | RLU [9]: 1070 | RLU [10]: 550 | RLU [11]: 1530 | RLU [12]: -566 | RLU [13]: -4180 | RLU [14]: 1880 | RLU [15]: 2760 | RLU [16]: 401 | RLU [17]: 1160 | RLU [18]: -1270 | RLU (Opsin-5 (Homo sapiens)): 4000 | RLU [19]: -390 | RLU [20]: 4360 | RLU [21]: 3390 | RLU [22]: 613 | RLU [23]: -688 | RLU [24]: -2920 | RLU [25]: -6780 | RLU [26]: -333 | RLU [27]: -1250 | RLU [28]: -793 | RLU [29]: 2600 | RLU [30]: -383 | RLU [31]: 319 | RLU [32]: -824 | RLU [33]: 5570 | RLU [34]: -153

— ChEMBL document CHEMBL5723582, “Data for DCP probe T-10430” (2024)
